Measurements as given in US20260090980A1, “COSMETIC COMPOSITIONS AND METHODS OF USING THE SAME” (MARY KAY INC., priority 2022, published 2026).

System: lipolysis
Assay: In-vitro activity: lipolysis
Type: cell-based
Conditions: 3 %

Structure (SMILES): Cn1c(=O)c2c(ncn2C)n(C)c1=O [Caffeine]
- Activity: lipolysis: Lipolysis
